Data reported in US12509373B2, “Composition and method for the removal of biofilm” (LANXESS Corporation, priority 2020, dated 2025).

Key:
[1] = tested on: Desulfovibrio vulgaris biofilm; assay: Biofilm removal, Crystal Violet Assay (anaerobic, 24 h treatment of pre-formed biofilm); assay type: cell-based
Description: A lyophilized D. vulgaris pure culture received from ATTCC was resuspended in 500 ul of MB 1249. Aseptically, the content was transferred to a 5¬mL tube of MB1249 medium. The culture was incubated in an anaerobic chamber at 30° C. for 72 hrs. Subsequently, a stock culture with a final concentration of 25% glycerol was prepared by adding equal volumes of culture and 50% glycerol. 1 ml of culture was then transferred to 2-ml cryogenic vials and stored AT-80c. The purity of the stock culture was evaluated through PCR, by amplifying the 16S rDNA region, and thus, it was verified that the original ATCC sample was a pure culture.
A 10% culture was prepared by taking 1 mL of stock culture and adding it to 9 mL of MB1249, then the culture was placed into a 30° C. side incubator within the chamber and incubated for 72 hours. After 72 hours of incubation, the 10-ml D. vulgaris culture was added to 40 ml of MB1249 medium and incubated for 48 hours. After the incubation time, the optical density of the culture was determined by taking 100 μL of culture and adding it to 900 μL of MB1249 in a cuvette. Another cuvette was filled with 1 mL of MB1249 for a blank. Then, each of culture cuvettes were read and their optical density (O.D.) was recorded by using the Thermofisher Spectronic 200 Spectrophotometer at 620 nm. Using a C1V1=C2V2 calculation and the optical density, the final concentration of culture added to the 96 well plates was ˜0.1 O.D. Then, NUNC Round bottom 96 well plates were filled with culture and anaerobic PBS+10% MB1249. The plates were placed into the side incubator of the anaerobic chamber at 30° C. for 24 hours to form biofilm.
After 24 hours of incubation at 30° C., all plates were removed from the incubator and the volume from each well was taken out with a multi-channel pipette. Then, the wells were re-filled with PBS+10% MB1249 and treatments.
The sugar analogues used in the treatment were α-Methyl D-Mannoside (αMM) and 2-Deoxy-D-Glucose (2DG). Both αMM and 2DG were purchased from Sigma. Stocks were prepared (W/V) by weighing sugar and adding anaerobic water inside the anaerobic chamber. The Glutaraldehyde, AQUCAR™ GA50 (“Glutaraldehyde”), was prepared outside of the chamber (V/V) as a safety measure. Each of the components were added at their respective concentrations for a final volume of 200 ul per well. In Table 3, the concentrations used for the synergy experiments are listed. Each experiment was done with at least six replicates for different treatments and at least 8 replicates for non-treatment controls.
Plates were then sealed with a titer-top and placed into anaerobic boxes with a gas pack. Then, incubated in an aerobic shaking incubator, 30° C. at 115 RPM. After 24 hours, the plates were processed using a Crystal Violet Assay.
After 24 hours of treatment, all the treatment solution was gently removed from plates using a multi-channel pipette. Then, 250 μL of DI water was re-filled into the wells. This step was then repeated so the plates were each rinsed twice. If residual DI water was in plates, they were inverted and gently patted onto a thick paper towel. Then, the plates were air dried in a ventilated hood.
To fix the biofilm in the wells, 250 μL per well of methanol was used, waiting time 5 minutes. This methanol was then removed and allowed to air dry. […] Then, the plates were placed into the Biotek Cytation 5, and the optical density (OD) was read at 600 nm. […]

[2] = tested on: anaerobic D. vulgaris biofilms; conditions: high levels of sugar analogs needed; WO2019/018087; cited from earlier work

SMILES: O=CCCCC=O [Glutaraldehyde]
- % OD compared to no-treatment control ([1]; Glutaraldehyde 25 ppm alone (2DG 0 ppm), 2DG combination experiment): 92.7%
- % OD compared to no-treatment control ([1]; Glutaraldehyde 25 ppm alone (αMM 0 ppm), αMM combination experiment): 99.3%
- % OD compared to no-treatment control ([1]; standalone, 2500 ppm): 97.4%

SMILES: CO[C@H]1O[C@H](CO)[C@@H](O)[C@H](O)[C@@H]1O [αMM, α-Methyl D-Mannoside]
- % OD compared to no-treatment control ([1]; standalone, 2000 ppm): 100.3%
- dispersal of anaerobic D. vulgaris biofilms [2]: disperse anaerobic D. vulgaris biofilms

SMILES: O=CC[C@@H](O)[C@H](O)[C@H](O)CO [2DG, 2-Deoxy-D-Glucose]
- % OD compared to no-treatment control ([1]; standalone, 2000 ppm): 101.7%
- dispersal of anaerobic D. vulgaris biofilms [2]: disperse anaerobic D. vulgaris biofilms
